In patent US20260258064A1 (SIRONAX LTD., priority 2023, published 2026) one finds IC50 data, which are given here for eleven compounds.

The target in this experiment is T1, SARM1 (50-724) (Homo sapiens, UniProt Q6SZW1).
T1 construct: Purified SARM1 (50-724) with a final concentration of 2 nM was pre-incubated with a test compound
T1 sequence (Q6SZW1 50-724): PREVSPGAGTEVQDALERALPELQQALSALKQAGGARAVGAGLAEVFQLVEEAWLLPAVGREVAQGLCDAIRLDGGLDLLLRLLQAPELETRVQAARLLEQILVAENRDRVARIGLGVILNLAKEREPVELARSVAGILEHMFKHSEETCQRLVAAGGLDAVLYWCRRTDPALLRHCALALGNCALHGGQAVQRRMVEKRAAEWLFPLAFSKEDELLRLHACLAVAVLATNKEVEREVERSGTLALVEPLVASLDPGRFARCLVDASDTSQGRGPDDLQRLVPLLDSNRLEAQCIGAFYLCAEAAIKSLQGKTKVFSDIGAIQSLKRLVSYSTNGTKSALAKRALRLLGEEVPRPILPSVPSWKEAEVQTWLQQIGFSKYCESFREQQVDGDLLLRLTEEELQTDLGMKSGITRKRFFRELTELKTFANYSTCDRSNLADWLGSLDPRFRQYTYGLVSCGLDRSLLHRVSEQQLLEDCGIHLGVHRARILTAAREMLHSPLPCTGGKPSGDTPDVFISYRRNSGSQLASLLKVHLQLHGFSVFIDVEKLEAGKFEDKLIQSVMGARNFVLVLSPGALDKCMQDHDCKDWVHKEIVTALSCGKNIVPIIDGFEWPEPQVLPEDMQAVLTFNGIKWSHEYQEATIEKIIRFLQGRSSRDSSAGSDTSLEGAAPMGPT
The experiment in a line: SARM1 (50-724) enzymatic assay (LC-MS/MS). The experiment is classed as biochemical. To be noted: Purified SARM1 (50-724) 2 nM, NMN as activator, NAD+ as substrate, 1 h at room temperature, read-out: IC50 (SARM1 inhibitory activity). Here is the method: An enzymatic assay was performed in a 384-well plate using Dulbecco's phosphate-buffered saline (PBS) as the reaction buffer. Purified SARM1 (50-724) with a final concentration of 2 nM was pre-incubated with a test compound at […] final assay concentration for 15 min at room temperature. The reaction was initiated by adding a mixture of […] nicotinamide mononucleotide (NMN) as activator and […] NAD^+ as substrate. After 1 h of incubation at room temperature, the reaction was terminated with 10 times volume of 70% acetonitrile, and then centrifuged at 3800 rpm for 10 min. The samples were analyzed using LC-MS/MS after diluted to a proper concentration by 10 mM ammonium acetate (pH 9.75).
In Table 2, activity is provided as follows: A: IC50≤100 nM; B: 100 nM<IC50≤500 nM; C: 500 nM<IC50≤1000 nM; D: IC50>1000 nM.
For `CS(=O)(=O)Cc1nnc(-c2nc3c(F)c(C(F)(F)F)ccc3[nH]2)n1-c1cccc(F)c1Cl` (racemic) [Compound 195, 2-(4-(2-chloro-3-fluorophenyl)-5-((methylsulfonyl)methyl)-4H-1,2,4-triazol-3-yl)-4-fluoro-5-(trifluoromethyl)-1H-benzo[d]imidazole], the IC50 was no more than 100 nM.
Then `FC(F)(F)O[C@@H]1CCOC[C@H]1n1cnnc1-c1nc2cc(C(F)(F)F)ccc2[nH]1` (racemic) [Compound 239, 2-(4-((3R,4R)-4-(trifluoromethoxy)tetrahydro-2H-pyran-3-yl)-4H-1,2,4-triazol-3-yl)-5-(trifluoromethyl)-1H-benzo[d]imidazole], with no more than 100 nM; and `CC(c1cc(F)c2[nH]c(-c3nncn3-c3cnccc3C(F)(F)F)nc2c1)c1nccs1` (racemic) [Compound 412, 2-(1-(7-fluoro-2-(4-(4-(trifluoromethyl)pyridin-3-yl)-4H-1,2,4-triazol-3-yl)-1H-benzo[d]imidazol-5-yl)ethyl)thiazole], with no more than 100 nM; and `C[S+]([O-])Cc1nnc(-c2nc3cc(C(F)(F)F)ccc3[nH]2)n1-c1cccc(Cl)c1Cl` (single isomer, unassigned) [Compound 146, 2-(4-(2,3-dichlorophenyl)-5-((methylsulfinyl)methyl)-4H-1,2,4-triazol-3-yl)-5-(trifluoromethyl)-1H-benzo[d]imidazole], with no more than 100 nM.
For `C[S+]([O-])Cc1nnc(-c2nc3cc(C(F)(F)F)ccc3[nH]2)n1-c1cccc(Cl)c1Cl` (single isomer, unassigned) [Compound 147, 2-(4-(2,3-dichlorophenyl)-5-((methylsulfinyl)methyl)-4H-1,2,4-triazol-3-yl)-5-(trifluoromethyl)-1H-benzo[d]imidazole] the value was no more than 100 nM; for `CS(=O)(=O)Cc1nnc(-c2nc3cc(C(F)(F)F)cc(F)c3[nH]2)n1-c1cccc(F)c1Cl` (single isomer, unassigned) [Compound 183, 2-(4-(2-Chloro-3-fluorophenyl)-5-((methylsulfonyl)methyl)-4H-1,2,4-triazol-3-yl)-7-fluoro-5-(trifluoromethyl)-1H-benzo[d]imidazole], 100 to 500 nM.
Then `CS(=O)(=O)Cc1nnc(-c2nc3cc(C(F)(F)F)cc(F)c3[nH]2)n1-c1cccc(F)c1Cl` (single isomer, unassigned) [Compound 184, 2-(4-(2-Chloro-3-fluorophenyl)-5-((methylsulfonyl)methyl)-4H-1,2,4-triazol-3-yl)-7-fluoro-5-(trifluoromethyl)-1H-benzo[d]imidazole], with no more than 100 nM; and `CS(=O)(=O)Cc1nnc(-c2nc3cc(C(F)(F)F)cc(F)c3[nH]2)n1-c1cccc(Cl)c1Cl` (single isomer, unassigned) [Compound 186], with 100 to 500 nM; and `CS(=O)(=O)Cc1nnc(-c2nc3cc(C(F)(F)F)cc(F)c3[nH]2)n1-c1cccc(Cl)c1Cl` (single isomer, unassigned) [Compound 187, 2-(4-(2,3-Dichlorophenyl)-5-((methylsulfonyl)methyl)-4H-1,2,4-triazol-3-yl)-7-fluoro-5-(trifluoromethyl)-1H-benzo[d]imidazole], with no more than 100 nM.
For `CS(=O)(=O)Cc1nnc(-c2nc3c(F)c(C(F)(F)F)ccc3[nH]2)n1-c1cccc(F)c1Cl` (single isomer, unassigned) [Compound 196, 2-(4-(2-chloro-3-fluorophenyl)-5-((methylsulfonyl)methyl)-4H-1,2,4-triazol-3-yl)-4-fluoro-5-(trifluoromethyl)-1H-benzo[d]imidazole], the IC50 was greater than 1000 nM.
For `CS(=O)(=O)Cc1nnc(-c2nc3c(F)c(C(F)(F)F)ccc3[nH]2)n1-c1cccc(F)c1Cl` (single isomer, unassigned) [Compound 197, 2-(4-(2-chloro-3-fluorophenyl)-5-((methylsulfonyl)methyl)-4H-1,2,4-triazol-3-yl)-4-fluoro-5-(trifluoromethyl)-1H-benzo[d]imidazole] the value was no more than 100 nM.

Broadly, the IC50 is the concentration that gives 50% inhibition.
